biological target: TLR2 (Homo sapiens, UniProt O60603); assay: TLR2 agonist screening assay, HEK-Blue TLR2 reporter cell line (NF-kB-driven SEAP, absorbance at 600 nm); type: cell-based; set-up: host or cells: HEK-293 (HEK-Blue TLR2 reporter cell line); details: HEK-Blue TLR2 reporter cells, agonist mode; average of all runs (Table 3)
From the text: TLRs are a class of cell-surface receptors expressed on many different cell types that recognize conserved structural motifs present on pathogen-derived molecules. TLR2 recognizes bacteria-derived lipopeptides. […] Provided herein is an assay to identify and characterize the binding affinities of novel TLR2 agonists.
The in vitro TLR2 assay consists of a cell line that responds to TLR2 engagement by producing a factor that elicits a color change in the culture media and can be readily measured by various colorimetric detection methods. This assay enables the identification of existing and novel compounds that engage TLR2 and, by virtue of compound dilution, to approximate the binding affinity of these compounds for eliciting a TLR2 signal.
The TLR2 screening assay was developed from the HEK-Blue TLR2 reporter cell line that is commercially available from Invivogen (San Diego, CA). The reporter cell line consists of HEK-293 embryonic kidney cells that have been engineered to express TLR2 and with an NF-kB promoter driving expression of Secreted Alkaline Phosphatase (SEAP). Upon engagement of TLR2, downstream signaling results in activation of NF-kB pathway activation and secretion of SEAR In the presence of the detection reagent in the tissue culture media, SEAP mediates a color change from clear to indigo that is readily assessed by measuring absorbance at 600 nm.
HEK-Blue TLR2 reporter cells are cultured according to manufacturer's specifications until a confluence of 70-90%, at which point the cells are trypsinized, counted, and plated into 96-well plates at approximately 40,000 cells per well. Cells are cultured overnight and the TLR2 assay is performed 16-24 hours post-plating into 96 well plates.
Compounds are diluted from stocks dissolved in DMSO and a 1% DMSO final concentration is maintained in all testing wells.
The assay consists of removing the cell culture media after cells have been cultured overnight and replacing the media with HEK-Blue Detection media with TLR2 agonists at indicated dilution schemes. The Detection media contains a chemical substrate that turns from clear to indigo when acted upon by SEAP. The HEK-Blue cells are then cultured overnight in Detection media with diluted compounds. After overnight culture with agonists, each well of the plate is assayed in a plate reader at 600 nanometer absorbance.
• (1) HEK-Blue TLR2 cells are diluted in complete DME culture medium and plated into 96-well plates at 40,000 cells per well and cultured overnight. • (2) After 16-24 hours in culture, the media is removed and replaced with 200 microliters per well of HEK-Blue Detection media. • (3) TLR2 agonists are diluted 100-fold from DMSO stocks into each well, yielding a final DMSO concentration of 1% in all wells. • (3) Treated cells are cultured overnight and the following day are assayed in plate reader for Absorbance at 600 nanometer.
Following assay measurements utilizing either HEK-Blue detection or cytokine release, all data is analyzed with the GraphPad Prism8 statistical package to determine EC50, binding and activity metrics for the TLR2 modulators.
Data is generated using protocol described in Example 44.

Chain of TLR2 (O60603 21-784): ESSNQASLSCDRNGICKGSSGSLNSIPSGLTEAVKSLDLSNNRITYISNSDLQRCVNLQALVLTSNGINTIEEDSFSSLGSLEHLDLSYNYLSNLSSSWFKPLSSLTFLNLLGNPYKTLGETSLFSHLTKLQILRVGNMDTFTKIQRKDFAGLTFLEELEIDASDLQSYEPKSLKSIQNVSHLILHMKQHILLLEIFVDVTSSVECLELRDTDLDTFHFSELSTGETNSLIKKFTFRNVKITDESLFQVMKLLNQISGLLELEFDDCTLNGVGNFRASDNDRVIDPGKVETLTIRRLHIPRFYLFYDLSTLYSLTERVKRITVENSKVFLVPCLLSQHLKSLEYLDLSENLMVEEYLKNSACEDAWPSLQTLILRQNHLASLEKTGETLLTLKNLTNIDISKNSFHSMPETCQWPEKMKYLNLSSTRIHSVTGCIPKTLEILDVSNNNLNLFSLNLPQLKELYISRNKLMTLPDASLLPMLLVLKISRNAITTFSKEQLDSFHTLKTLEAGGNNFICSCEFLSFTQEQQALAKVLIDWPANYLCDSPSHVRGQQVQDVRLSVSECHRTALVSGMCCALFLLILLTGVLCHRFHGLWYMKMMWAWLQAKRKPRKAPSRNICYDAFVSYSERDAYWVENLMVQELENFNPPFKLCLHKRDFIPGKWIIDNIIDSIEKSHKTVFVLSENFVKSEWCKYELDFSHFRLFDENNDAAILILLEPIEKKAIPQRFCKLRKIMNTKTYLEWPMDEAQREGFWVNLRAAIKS

SMILES	EC50
CCCCCCCCOC1CN(C(=O)c2ccc(C(=O)N3C[C@@H](C(=O)N[C@H]4C[C@@H]4c4ccccc4)[C@H](C(=O)N[C@H]4C[C@@H]4c4ccccc4)C3)cc2)C[C@H]1OCCCCCCCC (some centres unmarked) [Compound 020]	> 1000 nM
CCCCCCNC(=O)C1CN(C(=O)c2ccc(C(=O)N3C[C@@H](C(=O)N[C@H]4C[C@@H]4c4ccccc4)[C@H](C(=O)N[C@H]4C[C@@H]4c4ccccc4)C3)cc2)CCN1C(=O)NCCCCCC (some centres unmarked) [Compound 049]	> 1000 nM
CCCCCCCCCCCC(=O)N1CCN(C(=O)c2ccc(C(=O)N3C[C@@H](C(=O)N[C@H]4C[C@@H]4c4ccccc4)[C@H](C(=O)N[C@H]4C[C@@H]4c4ccccc4)C3)cc2)CC1C(=O)NCCCCCC (stereo partly drawn) [Compound 057, (3S,4S)-1-(4-(4-dodecanoyl-3-(hexylcarbamoyl)piperazine-1-carbonyl)benzoyl)-N3,N4-bis((1S,2R)-2-phenylcyclopropyl)pyrrolidine-3,4-dicarboxamide]	51 to 350 nM
CCCCCCCC(=O)N1CCN(C(=O)c2ccc(C(=O)N3C[C@@H](C(=O)N[C@H]4C[C@@H]4c4ccccc4)[C@H](C(=O)N[C@H]4C[C@@H]4c4ccccc4)C3)cc2)CC1C(=O)NCCCC (mixture of isomers) [Compound 046, (3S,4S)-1-(4-(3-(butylcarbamoyl)-4-octanoylpiperazine-1-carbonyl)benzoyl)-N3,N4-bis((1S,2R)-2-phenylcyclopropyl)pyrrolidine-3,4-dicarboxamide]	51 to 350 nM

same assay, conditions: HEK-Blue TLR2 reporter cells, agonist mode; average of all runs (Table 4)

SMILES	EC50
CCCCCCNC(=O)[C@@H](CCNC(=O)CCCCCC)NC(=O)c1ccc(C(=O)N2C[C@@H](C(=O)N[C@H]3C[C@@H]3c3ccccc3)[C@H](C(=O)N[C@H]3C[C@@H]3c3ccccc3)C2)cc1 [Compound 119, (3S,4S)-1-(4-(((R)-4-heptanamido-1-(hexylamino)-1-oxobutan-2-yl)carbamoyl)benzoyl)-N3,N4-bis((1S,2R)-2-phenylcyclopropyl)pyrrolidine-3,4-dicarboxamide]	> 1000 nM
CCCCCCCCCCCCCCN1C(=O)CNC(=O)[C@@H]1CNC(=O)c1ccc(C(=O)N2C[C@@H](C(=O)N[C@H]3C[C@@H]3c3ccccc3)[C@H](C(=O)N[C@H]3C[C@@H]3c3ccccc3)C2)cc1 [Compound 147, (3S,4S)-1-(4-((((S)-3,6-dioxo-1-tetradecylpiperazin-2-yl)methyl)carbamoyl)benzoyl)-N3,N4-bis((1S,2R)-2-phenylcyclopropyl)pyrrolidine-3,4-dicarboxamide]	> 1000 nM
CCCCCCCCCCCCCCNC(=O)[C@@H]1CN(S(=O)(=O)c2ccc(C(=O)N3C[C@@H](C(=O)N[C@H]4C[C@@H]4c4ccccc4)[C@H](C(=O)N[C@H]4C[C@@H]4c4ccccc4)C3)cc2)CCN1C(C)=O [Compound 196, (3S,4S)-1-(4-(((S)-4-acetyl-3-(tetradecylcarbamoyl)piperazin-1-yl)sulfonyl)benzoyl)-N3,N4-bis((1S,2R)-2-phenylcyclopropyl)pyrrolidine-3,4-dicarboxamide]	> 1000 nM
CCCCCCCCCCCCNC(=O)[C@@H]1CN(C(=O)c2ccc(C(=O)N3C[C@@H](C(=O)N[C@H]4C[C@@H]4c4ccccc4)[C@H](C(=O)N[C@H]4C[C@@H]4c4ccccc4)C3)cc2)CCN1C(C)=O [Compound 255, (3S,4S)-1-(4-((S)-4-acetyl-3-(dodecylcarbamoyl)piperazine-1-carbonyl)benzoyl)-N3,N4-bis((1S,2R)-2-phenylcyclopropyl)pyrrolidine-3,4-dicarboxamide]	> 1000 nM

The remaining lines, values ahead:

EC50	SMILES
351 to 1000 nM	CCCCCCCC(=O)N1CCN(Cc2ccc(C(=O)N3C[C@@H](C(=O)N[C@H]4C[C@@H]4c4ccccc4)[C@H](C(=O)N[C@H]4C[C@@H]4c4ccccc4)C3)cc2)C[C@@H]1C(=O)NCCCCCC [Compound 121, (3S,4S)-1-(4-(((R)-3-(hexylcarbamoyl)-4-octanoylpiperazin-1-yl)methyl)benzoyl)-N3,N4-bis((1S,2R)-2-phenylcyclopropyl)pyrrolidine-3,4-dicarboxamide]
> 1000 nM	CCCCCCCCCCCCCNC(=O)N[C@H]1CN(c2nc3ccc(C(=O)N4C[C@@H](C(=O)N[C@H]5C[C@@H]5c5ccccc5)[C@H](C(=O)N[C@H]5C[C@@H]5c5ccccc5)C4)cc3o2)C[C@@H]1OC [Compound 247, (3S,4S)-1-(2-((3S,4S)-3-methoxy-4-(3-tridecylureido)pyrrolidin-1-yl)benzo[d]oxazole-6-carbonyl)-N3,N4-bis((1S,2R)-2-phenylcyclopropyl)pyrrolidine-3,4-dicarboxamide]
0.1 to 50 nM	CCCCCCCCCCCCCNC(=O)N[C@H]1CN(c2nnc(-c3ccc(C(=O)N4C[C@@H](C(=O)N[C@H]5C[C@@H]5c5ccccc5)[C@H](C(=O)N[C@H]5C[C@@H]5c5ccccc5)C4)cc3)o2)C[C@@H]1OC [Compound 260, (3S,4S)-1-(4-(5-((3S,4S)-3-methoxy-4-(3-tridecylureido)pyrrolidin-1-yl)-1,3,4-oxadiazol-2-yl)benzoyl)-N3,N4-bis((1S,2R)-2-phenylcyclopropyl)pyrrolidine-3,4-dicarboxamide]
0.1 to 50 nM	CCCCCCCCCCCCCCNC(=O)[C@H]1CCCN(C(=O)c2ccc(C(=O)N3C[C@@H](C(=O)N[C@H]4C[C@@H]4c4ccccc4)[C@H](C(=O)N[C@H]4C[C@@H]4c4ccccc4)C3)cc2)C1 [Compound 123, (3S,4S)—N3,N4-bis((1S,2R)-2-phenylcyclopropyl)-1-(4-((S)-3-(tetradecylcarbamoyl)piperidine-1-carbonyl)benzoyl)pyrrolidine-3,4-dicarboxamide]
351 to 1000 nM	CCCCCCCCCCCCCCNC(=O)[C@@H]1CN(C(=O)c2ccc(C(=O)N3C[C@@H](C(=O)N[C@H]4C[C@@H]4c4ccccc4)[C@H](C(=O)N[C@H]4C[C@@H]4c4ccccc4)C3)cc2)C[C@@H]1OC (single isomer, unassigned) [Compound 107, (3S,4S)-1-(4-((3R*,4R*)-3-methoxy-4-(tetradecylcarbamoyl)pyrrolidine-1-carbonyl)benzoyl)-N3,N4-bis((1S,2R)-2-phenylcyclopropyl)pyrrolidine-3,4-dicarboxamide]
0.1 to 50 nM	CCCCCCCCCCCCCNC(=O)N[C@@H]1CCN(C(=O)c2ccc(C(=O)N3C[C@@H](C(=O)N[C@H]4C[C@@H]4c4ccccc4)[C@H](C(=O)N[C@H]4C[C@@H]4c4ccccc4)C3)cc2)C1 [Compound 079, (3S,4S)—N3,N4-bis((1S,2R)-2-phenylcyclopropyl)-1-(4-((R)-3-(3-tridecylureido)pyrrolidine-1-carbonyl)benzoyl)pyrrolidine-3,4-dicarboxamide]
0.1 to 50 nM	O=C(N[C@H]1C[C@@H]1c1ccccc1)[C@@H]1CN(C(=O)c2ccc(C(=O)N3C[C@@H](C(=O)N[C@H]4C[C@@H]4c4ccccc4)[C@H](C(=O)N[C@H]4C[C@@H]4c4cccnc4)C3)cc2)C[C@H]1C(=O)N[C@H]1C[C@@H]1c1ccccc1 (relative stereo) [Compound 096, (3S,4S)—N3-((1S)-2-phenylcyclopropyl)-N4-(2-phenylcyclopropyl)-1-(4-((3S,4S)-3-(((1S,2R)-2-phenylcyclopropyl)carbamoyl)-4-(((1S*,2R*)-2-(pyridin-3-yl)cyclopropyl)carbamoyl)pyrrolidine-1-carbonyl)benzoyl)pyrrolidine-3,4-dicarboxamide]
0.1 to 50 nM	CCCCCCCCCNC(=O)[C@H](CNC(=O)c1ccc(C(=O)N2C[C@@H](C(=O)N[C@H]3C[C@@H]3c3ccccc3)[C@H](C(=O)N[C@H]3C[C@@H]3c3ccccc3)C2)cc1)NC(=O)CCCCCCCCC [Compound 207, (3S,4S)-1-(4-(((S)-2-decanamido-3-(nonylamino)-3-oxopropyl)carbamoyl)benzoyl)-N3,N4-bis((1S,2R)-2-phenylcyclopropyl)pyrrolidine-3,4-dicarboxamide]
0.1 to 50 nM	CCCCCCCCNC(=O)[C@H](CNC(=O)c1ccc(C(=O)N2C[C@@H](C(=O)N[C@H]3C[C@@H]3c3ccccc3)[C@H](C(=O)N[C@H]3C[C@@H]3c3ccccc3)C2)cc1)NC(=O)CCCCCC [Compound 141, (3S,4S)-1-(4-(((S)-2-heptanamido-3-(octylamino)-3-oxopropyl)carbamoyl)benzoyl)-N3,N4-bis((1S,2R)-2-phenylcyclopropyl)pyrrolidine-3,4-dicarboxamide]

Source: US11951094B2, “TLR2 modulator compounds, pharmaceutical compositions and uses thereof” (Axial Therapeutics, Inc., priority 2020, dated 2024)
